Data on 1 molecule can be found in ChEMBL document CHEMBL4184249, “Structural development of tetrachlorophthalimides as liver X receptor β (LXRβ)-selective agonists with improved aqueous solubility” (Bioorg Med Chem Lett, 2018).

Series [1] has as its target T1, Retinoic acid receptor RXR-beta (Homo sapiens) (UniProt P28702).
T1 sequence (whole entry): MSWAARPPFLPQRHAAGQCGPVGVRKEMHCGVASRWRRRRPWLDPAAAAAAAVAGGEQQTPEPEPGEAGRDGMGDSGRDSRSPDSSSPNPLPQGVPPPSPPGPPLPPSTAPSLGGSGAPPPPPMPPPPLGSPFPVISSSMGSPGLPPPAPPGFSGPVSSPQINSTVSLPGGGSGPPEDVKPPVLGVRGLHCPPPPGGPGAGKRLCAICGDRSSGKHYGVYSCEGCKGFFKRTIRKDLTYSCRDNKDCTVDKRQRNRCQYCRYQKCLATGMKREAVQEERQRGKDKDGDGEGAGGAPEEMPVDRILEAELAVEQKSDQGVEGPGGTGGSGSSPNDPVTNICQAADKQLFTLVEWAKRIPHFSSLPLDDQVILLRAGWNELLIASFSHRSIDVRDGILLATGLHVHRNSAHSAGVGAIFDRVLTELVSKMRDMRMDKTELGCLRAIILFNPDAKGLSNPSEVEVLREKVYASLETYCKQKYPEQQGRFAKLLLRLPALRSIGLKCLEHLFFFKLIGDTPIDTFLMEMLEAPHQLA
Kind of series: Agonist activity at GAL4-tagged RXRbeta (unknown origin) expressed in HEK293 cells co-expressing CMX-beta-galactosidase at 0.3 to 30 uM incubated for 16 hrs by luciferase reporter gene assay. In kind it is cell-based. (Reporter assays use an easily measured gene product as a stand-in for the process of interest.)

The target in series [2] is T2, Oxysterols receptor LXR-beta (Homo sapiens) (UniProt P55055).
T2 sequence (whole entry): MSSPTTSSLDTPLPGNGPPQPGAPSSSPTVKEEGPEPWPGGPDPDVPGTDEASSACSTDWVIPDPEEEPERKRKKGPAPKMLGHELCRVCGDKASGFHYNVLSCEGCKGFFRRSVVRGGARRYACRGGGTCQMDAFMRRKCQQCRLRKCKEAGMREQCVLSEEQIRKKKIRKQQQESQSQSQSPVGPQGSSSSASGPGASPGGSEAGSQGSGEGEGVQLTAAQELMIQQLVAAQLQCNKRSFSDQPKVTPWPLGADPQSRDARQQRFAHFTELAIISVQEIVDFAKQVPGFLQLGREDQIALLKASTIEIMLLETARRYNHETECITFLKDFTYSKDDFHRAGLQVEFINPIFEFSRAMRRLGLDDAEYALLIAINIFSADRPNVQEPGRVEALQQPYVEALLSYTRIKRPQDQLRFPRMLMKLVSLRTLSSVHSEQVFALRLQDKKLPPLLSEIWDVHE
Put plainly: Agonist activity at human LXRbeta expressed in HEK293 cells co-expressing CMX-beta-galactosidase incubated for 16 hrs by luciferase reporter gene assay relative to T0901317. The series is classed as cell-based.

For series [3], the target named is T3, Oxysterols receptor LXR-alpha (Mus musculus) (UniProt Q9Z0Y9).
T3 sequence (whole entry): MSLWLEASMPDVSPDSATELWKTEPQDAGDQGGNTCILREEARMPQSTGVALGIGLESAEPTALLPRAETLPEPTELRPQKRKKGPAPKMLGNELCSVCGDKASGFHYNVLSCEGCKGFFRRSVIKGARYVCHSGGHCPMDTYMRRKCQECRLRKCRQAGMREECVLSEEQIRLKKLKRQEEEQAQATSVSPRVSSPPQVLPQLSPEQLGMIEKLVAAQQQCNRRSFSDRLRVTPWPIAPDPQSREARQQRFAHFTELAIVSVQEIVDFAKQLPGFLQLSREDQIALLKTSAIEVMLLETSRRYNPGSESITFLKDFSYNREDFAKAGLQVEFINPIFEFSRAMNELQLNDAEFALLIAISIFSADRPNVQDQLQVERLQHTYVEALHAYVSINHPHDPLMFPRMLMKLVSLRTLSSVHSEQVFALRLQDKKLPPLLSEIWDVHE
Put plainly: Agonist activity at mouse LXRalpha expressed in HEK293 cells co-expressing CMX-beta-galactosidase at 30 uM incubated for 16 hrs by luciferase reporter gene assay. The series is classed as cell-based.

A short description of series [4]: Aqueous solubility of the compound in EtOH: 1/15 M phosphate buffer at pH 7.4 1:1 by HPLC method. The series is classed as physicochemical.
The target of series [5] is T4, Oxysterols receptor LXR-beta (Homo sapiens, UniProt P55055). Kind of series: Agonist activity at LXRbeta ligand-binding domain (unknown origin) incubated for 1.5 hrs using fluorescein-labeled coactivator peptide by TR-FRET competitive binding assay. Background: TR-FRET usually uses a lanthanide donor and a delayed reading to cut background.
Series [6] concerns the target T4, Oxysterols receptor LXR-beta. Kind of series: Agonist activity at LXRbeta ligand-binding domain (unknown origin) incubated for 1.5 hrs using fluorescein-labeled coactivator peptide by TR-FRET competitive binding assay.
Series [7] deals with T5, Retinoic acid receptor RXR-gamma (Homo sapiens) (UniProt P48443).
T5 sequence (whole entry): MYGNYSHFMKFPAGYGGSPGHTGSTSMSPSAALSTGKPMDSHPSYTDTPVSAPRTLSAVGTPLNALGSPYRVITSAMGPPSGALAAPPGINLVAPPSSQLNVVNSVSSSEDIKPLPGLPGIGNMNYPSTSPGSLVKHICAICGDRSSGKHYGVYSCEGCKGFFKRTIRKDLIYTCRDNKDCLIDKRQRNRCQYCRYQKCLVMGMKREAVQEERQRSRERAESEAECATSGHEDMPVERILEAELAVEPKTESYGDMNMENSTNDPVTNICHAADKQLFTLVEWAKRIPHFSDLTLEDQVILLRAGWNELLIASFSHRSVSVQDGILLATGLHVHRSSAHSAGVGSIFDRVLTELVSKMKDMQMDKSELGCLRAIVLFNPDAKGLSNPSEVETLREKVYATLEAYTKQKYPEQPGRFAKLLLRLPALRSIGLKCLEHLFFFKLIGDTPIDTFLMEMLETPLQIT
Kind of series: Agonist activity at GAL4-tagged RXRgamma (unknown origin) expressed in HEK293 cells co-expressing CMX-beta-galactosidase at 0.3 to 30 uM incubated for 16 hrs by luciferase reporter gene assay. The series is classed as cell-based.

The target of series [8] is T6, Oxysterols receptor LXR-beta (Mus musculus, UniProt Q60644).
T6 sequence (Q60644 whole entry): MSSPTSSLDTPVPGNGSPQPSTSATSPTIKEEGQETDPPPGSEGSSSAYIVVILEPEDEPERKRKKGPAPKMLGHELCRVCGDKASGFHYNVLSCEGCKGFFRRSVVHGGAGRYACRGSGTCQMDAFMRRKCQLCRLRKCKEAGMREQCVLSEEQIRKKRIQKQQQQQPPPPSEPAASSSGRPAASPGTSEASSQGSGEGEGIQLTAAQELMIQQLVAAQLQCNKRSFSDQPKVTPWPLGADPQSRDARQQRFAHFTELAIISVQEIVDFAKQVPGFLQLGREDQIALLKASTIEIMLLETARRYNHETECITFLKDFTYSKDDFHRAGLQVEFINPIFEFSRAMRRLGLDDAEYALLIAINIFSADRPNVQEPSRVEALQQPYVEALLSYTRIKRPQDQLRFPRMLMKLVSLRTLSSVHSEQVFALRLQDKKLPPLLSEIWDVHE
Kind of series: Agonist activity at mouse LXRbeta expressed in HEK293 cells co-expressing CMX-beta-galactosidase incubated for 16 hrs by luciferase reporter gene assay. The series is classed as cell-based.

Values after ≈ are worked out from the molar mass of the structure shown. Active and inactive are the calls of the source. The calls are words filed in the database; no cut-off is given here.

For the molecule `O=C1c2c(Cl)c(Cl)c(Cl)c(Cl)c2C(=O)N1c1ccccc1/C=C/c1cccs1`, the result in series [1], in series [3] and in series [7] was inactive. This molecule displayed an Efficacy in series [2] of 149%. In series [4], the solubility (in general, how much of the substance goes into solution per volume) was determined as 0.015 µg/mL (≈ 0.032 µM). The Activity result in series [5] was “Dose-dependent effect”. The concentration for a half-maximal effect (EC50) – broadly, the concentration that produces a half-maximal response – is 0.0404 µM in series [6] and 0.79 µM in series [8].
